Data on 15 compounds can be found in patent US20230219979A1, “PYRAZOLO[1,5-a]PYRIDINE COMPOUND, PREPARATION METHOD THEREFOR AND USE THEREOF” (SHENZHEN ZHONGGE BIOLOGICAL TECHNOLOGY CO., LTD., priority 2019, published 2023).

One experiment concerns the target Wild-type RET kinase (Homo sapiens, UniProt P07949). Put plainly: HTRF method for testing the inhibitory activity of compounds against RET. Format: biochemical. As to conditions: HTRF; read-out: Wild-type RET kinase.
The target in a further experiment is VEGFR2 kinase (Homo sapiens, UniProt P35968). Description: HTRF method for testing the inhibitory activity of compounds against VEGFR2. Format: biochemical. In general terms: Time-resolved FRET reads energy transfer from a long-lived donor to a nearby acceptor.
VEGFR2 kinase, sequence (P35968 20-1356): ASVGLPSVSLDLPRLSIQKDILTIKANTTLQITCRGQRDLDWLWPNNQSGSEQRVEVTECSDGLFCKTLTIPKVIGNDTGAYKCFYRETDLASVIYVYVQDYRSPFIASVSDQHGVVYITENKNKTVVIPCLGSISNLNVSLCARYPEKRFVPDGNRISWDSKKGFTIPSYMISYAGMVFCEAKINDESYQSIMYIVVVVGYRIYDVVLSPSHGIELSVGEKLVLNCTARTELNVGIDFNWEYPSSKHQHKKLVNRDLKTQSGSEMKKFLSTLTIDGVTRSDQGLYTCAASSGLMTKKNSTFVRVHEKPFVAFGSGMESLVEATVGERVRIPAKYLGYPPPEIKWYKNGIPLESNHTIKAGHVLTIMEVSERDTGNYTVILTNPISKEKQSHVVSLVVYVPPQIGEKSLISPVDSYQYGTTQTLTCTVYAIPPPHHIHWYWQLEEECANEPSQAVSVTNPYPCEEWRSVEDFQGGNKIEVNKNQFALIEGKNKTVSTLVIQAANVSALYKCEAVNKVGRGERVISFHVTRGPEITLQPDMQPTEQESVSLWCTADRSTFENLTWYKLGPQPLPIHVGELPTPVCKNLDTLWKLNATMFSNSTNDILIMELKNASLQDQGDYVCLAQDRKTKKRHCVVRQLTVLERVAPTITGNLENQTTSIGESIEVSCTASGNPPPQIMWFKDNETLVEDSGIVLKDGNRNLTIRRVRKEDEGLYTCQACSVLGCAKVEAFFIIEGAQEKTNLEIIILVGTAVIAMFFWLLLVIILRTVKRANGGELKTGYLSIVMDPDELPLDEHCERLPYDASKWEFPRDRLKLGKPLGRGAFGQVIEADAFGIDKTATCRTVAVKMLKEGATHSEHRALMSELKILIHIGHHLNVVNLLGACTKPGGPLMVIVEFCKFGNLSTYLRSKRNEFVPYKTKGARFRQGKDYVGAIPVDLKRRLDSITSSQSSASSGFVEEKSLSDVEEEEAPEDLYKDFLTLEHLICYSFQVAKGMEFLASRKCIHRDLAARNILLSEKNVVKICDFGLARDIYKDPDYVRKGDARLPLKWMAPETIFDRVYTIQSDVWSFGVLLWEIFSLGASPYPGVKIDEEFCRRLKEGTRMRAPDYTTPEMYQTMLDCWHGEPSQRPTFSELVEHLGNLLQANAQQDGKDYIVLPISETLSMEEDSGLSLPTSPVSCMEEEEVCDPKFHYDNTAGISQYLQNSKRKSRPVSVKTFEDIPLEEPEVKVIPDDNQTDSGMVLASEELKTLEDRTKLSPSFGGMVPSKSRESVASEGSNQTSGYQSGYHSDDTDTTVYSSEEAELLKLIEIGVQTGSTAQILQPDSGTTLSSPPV
In the next experiment the target is T1, Ba/F3-KIF5B-RET cell (Homo sapiens, UniProt P07949).
T1 construct: fused on or other part: P33176 (Kinesin-1 heavy chain)
T1 sequence (P07949 whole entry, change not shown, the tested form may be a part): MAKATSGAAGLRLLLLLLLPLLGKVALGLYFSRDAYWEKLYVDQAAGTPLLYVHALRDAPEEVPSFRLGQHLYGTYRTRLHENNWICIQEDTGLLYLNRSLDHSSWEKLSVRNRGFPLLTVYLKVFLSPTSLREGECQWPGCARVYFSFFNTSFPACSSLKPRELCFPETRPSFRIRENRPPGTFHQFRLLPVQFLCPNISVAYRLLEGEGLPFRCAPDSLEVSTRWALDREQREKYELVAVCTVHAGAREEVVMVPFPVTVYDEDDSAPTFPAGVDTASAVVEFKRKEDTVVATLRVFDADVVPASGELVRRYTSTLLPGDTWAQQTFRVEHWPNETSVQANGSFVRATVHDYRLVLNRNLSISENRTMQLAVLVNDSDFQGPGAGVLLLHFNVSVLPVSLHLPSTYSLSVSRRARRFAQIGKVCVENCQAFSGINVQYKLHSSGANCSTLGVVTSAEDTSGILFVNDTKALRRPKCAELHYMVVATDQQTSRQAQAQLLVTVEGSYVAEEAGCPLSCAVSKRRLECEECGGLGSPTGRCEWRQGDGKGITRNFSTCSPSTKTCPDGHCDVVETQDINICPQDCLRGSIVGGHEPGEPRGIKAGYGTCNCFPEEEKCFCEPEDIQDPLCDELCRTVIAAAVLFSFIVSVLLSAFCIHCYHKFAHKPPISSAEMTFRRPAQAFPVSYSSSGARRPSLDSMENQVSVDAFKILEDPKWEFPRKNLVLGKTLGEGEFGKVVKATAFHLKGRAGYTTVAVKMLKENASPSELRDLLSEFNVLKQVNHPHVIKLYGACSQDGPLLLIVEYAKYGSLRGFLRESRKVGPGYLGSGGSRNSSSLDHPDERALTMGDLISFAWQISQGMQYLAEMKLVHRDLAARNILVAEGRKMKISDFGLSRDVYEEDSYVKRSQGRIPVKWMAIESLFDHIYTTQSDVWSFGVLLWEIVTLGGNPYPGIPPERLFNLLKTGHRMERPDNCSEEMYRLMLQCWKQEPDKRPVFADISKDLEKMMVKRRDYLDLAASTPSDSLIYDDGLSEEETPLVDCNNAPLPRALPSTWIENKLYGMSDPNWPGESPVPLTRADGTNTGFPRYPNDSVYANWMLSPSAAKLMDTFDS
Description: CellTiter-Glo luminescence assay, inhibitory activity against Ba/F3-KIF5B-RET cell. Format: cell-based. As to conditions: 72 h, read-out: Ba/F3-KIF5B-RET cell activity. The text has this: (C) In Vitro Screening Experiment - CellTiter-Glo Luminescence Assay for Testing The inhibitory activity of compounds against Ba/F3-KIF5B-RET cell
• 1. The mammalian cell expression vector containing human KIF5B-RET cDNA was introduced into Ba/F3 cells using the Neon® transfection system method, and the surviving clones screened by puromycin were subjected to cell growth inhibitory function experiments and Western blotting to verify cell lines with stable and high expression of RET. • 2. Cells were cultured in RPMI 1640 medium containing 10% fetal bovine serum, 1% penicillin-streptomycin, and 2 µg/mL puromycin, and then placed in a 37° C., 5% carbon dioxide cell incubator. • 3. The test compound (5 mM stock) was diluted 2.5 folds to […] with 100% dimethyl sulfoxide; and the compound was diluted into 10 concentrations at an equal ratio of 1:3 in a 384-well dilution plate. • 4. 0.2 µL of the serially diluted compound was added to a 384-well cell culture plate (Corning, 3570) using an Echo 550 pipetting system, 2 replicate wells for each concentration, and the final concentration of dimethyl sulfoxide was 0.5% (v/v). The gradient concentrations of the test compound were 5000, 1666.7, 555.5, 185.18, 61.72, 20.57, 6.858, 2.286, 0.764, 0.254 nM. • 5. 40 µL of Ba/F3-KIF5B-RET cell suspension containing 800 cells was added to each well, and incubated for 72 h in a 5% CO2 cell incubator. • 6. 20 µL of Cell Titer-Glo reagent was added to each well of the cell culture plate, and the culture system was then shaken and mixed thoroughly for 2 min to lyse the cells, the cells were then incubated at room temperature for 30 min, and the […] signal values were then read with an Envision 2104 microplate reader. • 7. By fitting the data with XLFit 5.0 based on the parameters formula, the IC50 value was calculated as: • [formula]
For orientation: In ATP-based viability assays light output follows the ATP content of the culture.

The target of a further experiment is RET G810S kinase (Homo sapiens, UniProt P07949, G810S). Put plainly: HTRF method for testing the inhibitory activity against RET G810S. The experiment is classed as biochemical. As to conditions: for IC50: HTRF; for inhibitory activity against G810S (in words): mutant strain of RET kinase.
RET G810S kinase, sequence (P07949 29-1114 G810S): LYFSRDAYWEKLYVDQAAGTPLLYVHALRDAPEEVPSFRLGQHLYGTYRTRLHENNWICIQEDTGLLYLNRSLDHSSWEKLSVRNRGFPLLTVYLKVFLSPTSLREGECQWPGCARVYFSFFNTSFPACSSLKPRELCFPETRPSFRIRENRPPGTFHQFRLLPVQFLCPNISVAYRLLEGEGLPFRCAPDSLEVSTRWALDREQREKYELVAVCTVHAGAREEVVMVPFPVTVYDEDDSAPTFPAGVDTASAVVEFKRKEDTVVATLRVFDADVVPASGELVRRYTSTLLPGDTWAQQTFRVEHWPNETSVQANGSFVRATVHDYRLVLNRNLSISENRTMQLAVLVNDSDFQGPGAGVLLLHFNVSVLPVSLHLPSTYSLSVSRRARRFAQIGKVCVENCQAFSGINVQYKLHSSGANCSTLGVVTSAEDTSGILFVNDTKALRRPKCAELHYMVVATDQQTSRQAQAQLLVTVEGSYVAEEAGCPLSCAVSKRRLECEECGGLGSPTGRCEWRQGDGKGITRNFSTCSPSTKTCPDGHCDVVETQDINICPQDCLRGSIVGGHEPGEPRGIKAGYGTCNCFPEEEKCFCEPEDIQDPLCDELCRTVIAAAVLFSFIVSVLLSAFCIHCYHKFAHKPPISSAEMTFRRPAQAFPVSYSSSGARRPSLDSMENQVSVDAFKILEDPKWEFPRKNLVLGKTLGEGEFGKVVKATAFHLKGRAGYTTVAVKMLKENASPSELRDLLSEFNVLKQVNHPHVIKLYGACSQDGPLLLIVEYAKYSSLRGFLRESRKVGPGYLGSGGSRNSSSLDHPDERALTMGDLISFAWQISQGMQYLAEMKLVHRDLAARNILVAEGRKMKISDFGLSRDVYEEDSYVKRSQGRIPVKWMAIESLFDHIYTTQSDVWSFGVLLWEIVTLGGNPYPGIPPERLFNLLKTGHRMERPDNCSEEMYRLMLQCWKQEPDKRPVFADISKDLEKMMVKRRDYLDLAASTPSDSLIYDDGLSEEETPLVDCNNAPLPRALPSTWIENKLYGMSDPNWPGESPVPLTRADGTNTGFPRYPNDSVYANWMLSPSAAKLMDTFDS
For another experiment, the target named is RET G810R kinase (Homo sapiens, UniProt P07949, G810R). Description: HTRF method for testing the inhibitory activity against RET G810R. The experiment is classed as biochemical. The following applies: for IC50: HTRF; for inhibitory activity against G810R (in words): mutant strain of RET kinase.
RET G810R kinase, sequence (P07949 29-1114 G810R): as the sequence (P07949 29-1114 G810S) above, with S782R counted along it

Wild-type RET kinase, sequence (P07949 29-1114): as the sequence (P07949 29-1114 G810S) above, with S782G counted along it

On to `CCCNc1cc(-c2ccc(N3CC4CC(C3)N4Cc3ccc(OC)nc3)nc2)c2c(C#N)cnn2c1` [Compound 57, 4-(6-(6-((6-methoxypyridin-3-yl)methyl)-3,6-diazabicyclo[3.1.1]heptan-3-yl)pyridin-3-yl)-6-(propylamino)pyrazolo[1,5-a]pyridine-3-carbonitrile], for which the IC50 at Wild-type RET kinase was 0.32 nM; against VEGFR2 kinase, 31.3 nM; on RET G810S kinase it was 2.33 nM; against RET G810R kinase it was 10.6 nM. Further, the GI50 at Ba/F3-KIF5B-RET cell was found to be 1.24 nM. For the same compound, on RET G810S kinase, the “inhibitory activity against G810S (in words)” value was “good inhibitory activity”. Further, the “inhibitory activity against G810R (in words)” value at RET G810R kinase is listed as “good inhibitory activity”.

`COc1ccc(CN2C3CC2CN(c2cnc(-c4cc(OCC5C[C@H]6CC[C@@H](C5)N6)cn5ncc(C#N)c45)cn2)C3)cn1` (stereo partly drawn) [Compound 40, 6-(((1R, 5S)-8-azabicyclo[3.2.1]oct-3-yl)methoxy)-4-(5-(6-((6-methoxypyridine-3-yl)methyl)-3,6diazabicyclo[3.1.1]heptan-3-yl)pyrazin-2-yl)pyrazolo[1,5-a]pyridine-3-carbonitrile]: the IC50 was 0.86 nM at Wild-type RET kinase and 112 nM at VEGFR2 kinase. Also, at Ba/F3-KIF5B-RET cell, the GI50 was 208 nM.

In the case of `COc1ccc(CN2C3CC2CN(c2ccc(-c4cc(NCC(=O)N(C)C)cn5ncc(C#N)c45)cn2)C3)cn1` [Compound 59, 2-((3-cyano-4-(6-(6-((6-methoxypyridin-3-yl)methyl)-3,6-diazabicyclo[3.1.1]heptan-3-yl)pyridin-3-yl)pyrazolo[1,5-a]pyridin-6-yl)amino)-N,N-dimethylacetamide], the IC50 turned out to be 1.69 nM on Wild-type RET kinase and 93.8 nM against VEGFR2 kinase. Moreover, the GI50 at Ba/F3-KIF5B-RET cell turned out to be 11.9 nM.

Take `COc1ccc(CN2C3CC2CN(c2ccc(-c4cc(N5CCCC5)cn5ncc(C#N)c45)cn2)C3)cn1` [Compound 55, 4-(6-(6-((6-methoxypyridin-3-yl)methyl)-3,6-diazabicyclo[3.1.1]heptyl-3-yl)pyridin-3-yl)-6-(pyrrolidin-1-yl)pyrazolo[1,5-a]pyridine-3-carbonitrile]: the IC50 stood at 0.49 nM at Wild-type RET kinase and 8.48 nM on VEGFR2 kinase. The GI50 at Ba/F3-KIF5B-RET cell came out at 6.77 nM.

Take `COc1ccc(CN2C3CC2CN(c2cnc(-c4cc(N5CCOCC5)cn5ncc(C#N)c45)cn2)C3)cn1` [Compound 66, 4-(5-(6-((6-methoxypyridin-3-yl)methyl)-3,6-diazabicyclo[3.1.1]heptyl-3-yl)pyrazin-2-yl)-6-morpholinopyrazolo[1,5-a]pyridine-3-carbonitrile]: the IC50 turned out to be 0.82 nM on Wild-type RET kinase, 318 nM against VEGFR2 kinase, 26.7 nM against RET G810S kinase and 173 nM at RET G810R kinase. The GI50 on Ba/F3-KIF5B-RET cell worked out at 6.21 nM. On RET G810S kinase, the “inhibitory activity against G810S (in words)” value is recorded as “good inhibitory activity”. In addition, the “inhibitory activity against G810R (in words)” value against RET G810R kinase is “good inhibitory activity”.

For `CCCCNc1cc(-c2ccc(N3CC4CC(C3)N4Cc3ccc(OC)nc3)nc2)c2c(C#N)cnn2c1` [Compound 68, 6-(butylamino)-4-(6-(6-((6-methoxypyridin-3-yl)methyl)-3,6-diazabicyclo[3.1.1]hept-3-yl)pyridin-3-yl)pyrazolo[1,5-a]pyridine-3-carbonitrile], the IC50 on Wild-type RET kinase was 0.37 nM; against VEGFR2 kinase it was 59.8 nM; against RET G810S kinase, 6.18 nM; against RET G810R kinase, 49.1 nM. Besides, the GI50 on Ba/F3-KIF5B-RET cell came out at 4.19 nM. For the same compound, the “inhibitory activity against G810S (in words)” value at RET G810S kinase was “good inhibitory activity”. Further, the “inhibitory activity against G810R (in words)” value against RET G810R kinase is “good inhibitory activity”.

For the compound `COc1ccc(CN2C3CC2CN(c2cnc(-c4cc(OCCN5CC6(COC6)C5)cn5ncc(C#N)c45)cn2)C3)cn1` [Compound 36, 6-(2-(2-oxa-6-azaspiro[3.3]hept-6-yl)ethoxy)-4-(5-(6-((6-methoxypyridin-3-yl)methyl)-3,6-diazabicyclo[3.1.1]heptan-3-yl)pyrazin-2-yl)pyrazolo[1,5-a]pyridine-3-carbonitrile], the IC50 came to 2.44 nM at Wild-type RET kinase and 454 nM on VEGFR2 kinase. On Ba/F3-KIF5B-RET cell, the GI50 turned out to be 32.1 nM.

On to `COc1ccc(CN2C3CC2CN(c2cnc(-c4cc(OCCN5CC6CCC5C6)cn5ncc(C#N)c45)cn2)C3)cn1` (centres unmarked) [Compound 38, 6-(2-(2-azabicyclo[2.2.1]hept-2-yl)ethoxy)-4-(5-(6-((6-methoxypyridine-3-yl)methyl)-3,6-diazabicyclo[3.1.1]heptan-3-yl)pyrazin-2-yl)pyrazolo[1,5-a]pyridine-3-carbonitrile], for which the IC50 was 3.22 nM on Wild-type RET kinase and 666 nM against VEGFR2 kinase. For the same compound, at Ba/F3-KIF5B-RET cell, the GI50 came out at 37.3 nM.

For `COc1ccc(CN2C3CC2CN(c2ccc(-c4cc(N5CCOCC5)cn5ncc(C#N)c45)cn2)C3)cn1` [Compound 70, 4-(6-(6-((6-methoxypyridin-3-yl)methyl)-3,6-diazabicyclo[3.1.1]heptyl-3-yl)pyridin-3-yl)-6-morpholinopyrazolo[1,5-a]pyridine-3-carbonitrile], the IC50 at Wild-type RET kinase was 0.24 nM; on VEGFR2 kinase, 57.5 nM; against RET G810S kinase, 10.4 nM; on RET G810R kinase, 31.4 nM. Also, the GI50 at Ba/F3-KIF5B-RET cell stood at 1.97 nM. For the same compound, the “inhibitory activity against G810S (in words)” value on RET G810S kinase was “good inhibitory activity”. Moreover, the “inhibitory activity against G810R (in words)” value at RET G810R kinase is recorded as “good inhibitory activity”.

Take `CCNc1cc(-c2ccc(N3CC4CC(C3)N4Cc3ccc(OC)nc3)nc2)c2c(C#N)cnn2c1` [Compound 62, 6-(ethylamino)-4-(6-(6-((6-methoxypyridin-3-yl)methyl)-3,6-diazabicyclo[3.1.1]heptan-3-yl)pyridin-3-yl)pyrazolo[1,5-a]pyridine-3-carbonitrile]: the IC50 amounted to 0.21 nM at Wild-type RET kinase, 20 nM on VEGFR2 kinase, 0.8 nM against RET G810S kinase and 6.22 nM against RET G810R kinase. Besides, the GI50 on Ba/F3-KIF5B-RET cell stood at 1.82 nM. The “inhibitory activity against G810S (in words)” value at RET G810S kinase is on record as “good inhibitory activity”. For the same compound, the “inhibitory activity against G810R (in words)” value against RET G810R kinase was “good inhibitory activity”.

Take `CNc1cc(-c2ccc(N3CC4CC(C3)N4Cc3ccc(OC)nc3)nc2)c2c(C#N)cnn2c1` [Compound 47, 4-(6-(6-((6-methoxypyridin-3-yl)methyl)-3,6-diazabicyclo[3.1.1]heptyl-3-yl)pyridin-3-yl)-6-(methylamino)pyrazolo[1,5-a]pyridine-3-carbonitrile]: the IC50 at Wild-type RET kinase came out at 0.04 nM; against VEGFR2 kinase, 33.7 nM; against RET G810S kinase it was 1.23 nM; at RET G810R kinase, 8.93 nM. In addition, at Ba/F3-KIF5B-RET cell, the GI50 was 1.42 nM. Also, the “inhibitory activity against G810S (in words)” value against RET G810S kinase was “good inhibitory activity”. Besides, at RET G810R kinase, the “inhibitory activity against G810R (in words)” value is reported as “good inhibitory activity”.

As for `COc1ccc(CN2C3CC2CN(c2ccc(-c4cc(NC(C)C)cn5ncc(C#N)c45)cn2)C3)cn1` [Compound 69, 6-(isopropylamino)-4-(6-(6-((6-methoxypyridin-3-yl)methyl)-3,6-diazabicyclo[3.1.1]heptyl-3-yl)pyridin-3-yl)pyrazolo[1,5-a]pyridine-3-carbonitrile], the IC50 at Wild-type RET kinase stood at 0.47 nM; at VEGFR2 kinase, 42.2 nM; against RET G810S kinase, 27 nM; against RET G810R kinase, 42.4 nM. Further, the GI50 at Ba/F3-KIF5B-RET cell was 4.14 nM. Further, the “inhibitory activity against G810S (in words)” value on RET G810S kinase is “good inhibitory activity”. For the same compound, the “inhibitory activity against G810R (in words)” value on RET G810R kinase was “good inhibitory activity”.

Take `COc1ccc(CN2C3CC2CN(c2ccc(-c4cc(NCC(F)F)cn5ncc(C#N)c45)cn2)C3)cn1` [Compound 50]: the IC50 came to 0.13 nM on Wild-type RET kinase, 59.3 nM on VEGFR2 kinase, 1.35 nM against RET G810S kinase and 5.65 nM against RET G810R kinase. For the same compound, the GI50 at Ba/F3-KIF5B-RET cell was determined as 5.75 nM. Further, at RET G810S kinase, the “inhibitory activity against G810S (in words)” value is “good inhibitory activity”. Also, the “inhibitory activity against G810R (in words)” value at RET G810R kinase is “good inhibitory activity”.

As to `COc1ccc(CN2C3CC2CN(c2ccc(-c4cc(N(C)CCN(C)C)cn5ncc(C#N)c45)cn2)C3)cn1` [Compound 61], the IC50 came out at 1.1 nM at Wild-type RET kinase and 482 nM at VEGFR2 kinase. Moreover, on Ba/F3-KIF5B-RET cell, the GI50 is 60.4 nM.

Regarding `COc1ccc(CN2C3CC2CN(c2cnc(-c4cc(OCC(C)(C)C#N)cn5ncc(C#N)c45)cn2)C3)cn1` [Compound 39, 6-(2-cyano-2-methylpropoxy)-4-(5-(6-((6-methoxypyridin-3-yl)methyl)-3,6-diazabicyclo[3.1.1]heptan-3-yl)pyrazinpyridin-2-yl)pyrazolo[1,5-a]pyridine-3-carbonitrile], the figures for the IC50 at Wild-type RET kinase and at VEGFR2 kinase were 1.25 nM and 259 nM, respectively. Also, the GI50 on Ba/F3-KIF5B-RET cell was 15.6 nM.
